Each structure is given as a SMILES string. pIC50: −log10 of the molar value. Like-named read-outs stand apart in the source and are kept apart here.

Test [1] concerns human breast cancer cell line MDB-MA-231. Put plainly: Proliferation inhibition assay on human breast cancer cell line MDA-MB-231 (DAPI staining, In Cell Analyzer). It counts as cell-based. The procedure:
Experimental Preparation:
1. MDA-MB-231 cells were seeded at 4000 cells/100 ul/well to a 96-well plate with black transparent bottom, and cultured overnight at 37° C.;
3. Fixation: the cell plate was taken, medium was removed, and 50 μl of 4% paraformaldehyde was added to each well and fixed 10 min;
4.50 μl 0.1 M glycine was added to neutralize for 10 min;
6. Permeabilization: 50 ul of 0.2% TritonX-100 was added to each well and permeabilized at room temperature for 10 min;
8.5 mg/mL DAPI stock solution was diluted at 1:5000 (final concentration 1 μg/ml) and the cells were stained at room temperature for 20 min.
10. The plate was scanned and analyzed on In cell analyser.

A further test has as its target CDK4/D3 (Homo sapiens (Human), UniProt P11802). Briefly: CDKs inhibition assay (ADP-Glo Kinase Assay), CDK4. Background: ADP-Glo first removes unused ATP, then detects ADP through luciferase.
For a further test, the target named is CDK6/D3 (Homo sapiens (Human), UniProt Q00534). Briefly: CDKs inhibition assay (ADP-Glo Kinase Assay), CDK6.
[2] abbreviates: MDA-MB-231, read-out: IC50 for inhibition of proliferation of human breast cancer cell line MDB-MA-231, 72 h incubation.
The mark [3] stands for this setting: MDA-MB-231, 72 h, read-out: IC50 for inhibition of proliferation of human breast cancer cell line MDB-MA-231.

Chain of CDK4/D3 (P11802 whole entry): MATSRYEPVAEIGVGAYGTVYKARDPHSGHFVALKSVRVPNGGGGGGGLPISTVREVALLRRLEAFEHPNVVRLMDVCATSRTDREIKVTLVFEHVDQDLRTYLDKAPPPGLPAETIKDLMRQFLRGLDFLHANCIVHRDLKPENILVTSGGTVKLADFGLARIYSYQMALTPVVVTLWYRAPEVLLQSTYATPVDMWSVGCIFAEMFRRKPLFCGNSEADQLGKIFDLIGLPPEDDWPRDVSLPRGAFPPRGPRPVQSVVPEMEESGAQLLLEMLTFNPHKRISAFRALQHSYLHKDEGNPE
Chain of CDK4/D3 (P30281 whole entry partner): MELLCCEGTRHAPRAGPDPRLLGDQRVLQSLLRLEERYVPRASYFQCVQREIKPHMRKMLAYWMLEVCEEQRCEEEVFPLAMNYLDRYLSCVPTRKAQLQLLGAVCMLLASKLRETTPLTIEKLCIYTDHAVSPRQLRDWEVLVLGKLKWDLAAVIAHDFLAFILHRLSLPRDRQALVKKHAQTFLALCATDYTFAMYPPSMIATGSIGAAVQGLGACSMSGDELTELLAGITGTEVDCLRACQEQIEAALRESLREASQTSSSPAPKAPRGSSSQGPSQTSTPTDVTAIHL
Chain of CDK6/D3 (Q00534 whole entry): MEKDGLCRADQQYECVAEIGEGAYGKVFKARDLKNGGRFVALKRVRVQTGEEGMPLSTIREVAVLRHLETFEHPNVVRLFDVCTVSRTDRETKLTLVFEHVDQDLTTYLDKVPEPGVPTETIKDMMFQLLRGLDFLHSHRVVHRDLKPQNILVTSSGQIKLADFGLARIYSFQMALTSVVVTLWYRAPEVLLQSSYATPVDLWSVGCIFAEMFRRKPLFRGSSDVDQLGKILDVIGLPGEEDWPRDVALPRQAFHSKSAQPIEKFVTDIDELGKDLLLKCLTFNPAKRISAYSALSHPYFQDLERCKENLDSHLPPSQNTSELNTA
Chain of CDK6/D3 (P30281 whole entry partner): as the sequence (P30281 whole entry partner) above
Method for CDK4/D3: (2) Preparation of Test Compound:
(§1) a. Test compounds at a certain concentration were taken respectively, and diluted with kinase reaction buffer I to compound solutions with a final concentration of 50 μM;
(§2) 4. Preparation of reaction substrate and ATP mixed solution:
a. Preparation of ATP solution:
(§3) 200 μl of 0.1 mM ATP solution: 2 μl of 10 mM ATP was added into 198 μl kinase reaction buffer I;
(§4) 300 μl of 50 μl M ATP solution: 150 μl kinase reaction buffer I was added into 150 μl of above-mentioned 0.1 mM ATP solution;
(§5) b. Preparation of 300 μl reaction substrate solution:
(§6) 150 μl of 1 μg/μl reaction substrate stock solution was added into 150 μl kinase reaction buffer I and uniformly mixed;
(§7) c. Above-mentioned a/b solutions were mixed to obtain mixed solutions respectively.
(§8) 2 μl compound solution at each concentration was added into a 384-well plate respectively, and centrifuged for 3 min;
(§9) 4 μl kinase solution was added into each well, centrifuged at 5000 rpm for 10 min at 18° C., and shaked well for 10 min on a shaker;
(§10) 4 μl substrate and ATP mixed solution were added into each well, centrifuged at 5000 rpm for 10 min at 18° C., and shaked well for 90 min on a shaker at 37° C.;
(§11) The 384 well plate was removed and allow to achieve room temperature;
(§12) 10 μl ADP-Glo reagent was added into each well, centrifuged at 5000 rpm for 10 min at 18° C., and shaked well for 40 min on a shaker at 25° C. to terminate the reaction;
(§13) 20 μl kinase assay reagent was added into each well, centrifuged at 5000 rpm for 10 min at 18° C., and shaked well for 30 min on a shaker at 25° C.;
(§14) Fluorescence values were read by M1000pro microplate reader.
(§15) The inhibition rate of each compound at each concentration point was calculated according to the following equation, and IC50 value was calculated by curve fitting using GraphPad Prism 5 software.
Method for CDK6/D3: (2) Preparation of Test Compound:
as §1, §2
a. Preparation of ATP solution:
as §3, §4, §5, §6, §7, §8, §9, §10, §11, §12, §13, §14, §15

Regarding `Cc1nc(Nc2ncc(F)c(-c3cc(F)c4nc5n(c4c3)C(C)CC5)n2)ccc1CC1CCNCC1` (stereo not drawn) [Example 62, 5-Fluoro-4-(5-fluoro-1-methyl-2,3-dihydro-1H-benzo[d]pyrrolo[1,2-a]imidazol-7-yl)-N-(6-methyl-5-(piperidine-4-methylene)pyridin-2-yl)pyrimidin-2-amine], the pIC50 in test [1] (setting [2]) was 5.88; against CDK4/D3, 8.77; against CDK6/D3, 7.47.

Regarding `CC1(C)CCc2nc3c(F)cc(-c4nc(Nc5ccc(OC6CCNCC6)cn5)ncc4F)cc3n21` [Example 34, 5-Fluoro-4-(5-fluoro-1,1-dimethyl-2,3-dihydro-1H-benzo[d]pyrrolo[1,2-a]imidazol-7-yl)-N-(5-(piperidine-4-yloxy)pyridin-2-yl)pyrimidin-2-amine], the results for the pIC50 (in test [1] (setting [2]); against CDK4/D3; at CDK6/D3) were 7.46, 8.41 and 8.42, respectively.

Consider `O=C(CO)N1CCc2nc(Nc3ncc(F)c(-c4cc(F)c5nc6n(c5c4)CCCC6)n3)ccc2C1` [Example 15, 1-(2-((5-Fluoro-4-(6-fluoro-1,2,3,4-tetrahydrobenzo[4,5]imidazo[1,2-a]pyridin-8-yl)pyrimidin-2-yl)amino)-7,8-dihydro-1,6-naphthyridin-6(5H)-yl)-2-hydroxyethan-1-one], for which the results for the pIC50 (in test [1] (setting [3]); against CDK4/D3; at CDK6/D3) were 5.91, 7.55 and 7.16, respectively.

As to `CCC1CCc2nc3c(F)cc(-c4nc(Nc5ccc(N6CCNCC6)cn5)ncc4F)cc3n21` (stereo not drawn) [Example 54, 4-(1-Ethyl-5-fluoro-2,3-dihydro-1H-benzo[d]pyrrolo[1,2-a]imidazol-7-yl)-5-fluoro-N-(5-(piperazin-1-yl)pyridin-2-yl)pyrimidin-2-amine], the pIC50 is 6.60 in test [1] (setting [2]), 7.72 against CDK4/D3 and 8.02 at CDK6/D3.

As to `CCC1Cc2nc3c(F)cc(-c4nc(Nc5ccc(N6CCNCC6)cn5)ncc4F)cc3n2C1` (stereo not drawn) [Example 52, 4-(2-Ethyl-5-fluoro-2,3-dihydro-1H-benzo[d]pyrrolo[1,2-a]imidazol-7-yl)-5-fluoro-N-(5-(piperazin-1-yl)pyridin-2-yl)pyrimidin-2-amine], the pIC50 in test [1] (setting [2]) was 5.78; against CDK4/D3 it was 7.22; on CDK6/D3, 6.84.

On to `Cc1nc(Nc2ncc(F)c(-c3cc(F)c4nc5n(c4c3)C(C)(C)CC5)n2)ccc1N1CCNCC1` [Example 31], for which the pIC50 in test [1] (setting [2]) is 6.89; against CDK4/D3, 8.70; at CDK6/D3, 7.26.

`CCN1CCC(Oc2ccc(Nc3ncc(F)c(-c4cc(F)c5nc6n(c5c4)C(C)(C)CC6)n3)nc2)CC1` [Example 33, N-(5-((1-Ethylpiperidine-4-yl)oxy)pyridin-2-yl)-5-fluoro-4-(5-fluoro-1,1-dimethyl-2,3-dihydro-1H-benzo[d]pyrrolo[1,2-a]imidazol-7-yl)pyrimidin-2-amine]: the pIC50 in test [1] (setting [2]) was 7.70; against CDK4/D3, 8.49; at CDK6/D3, 8.12.

Regarding `CN(C)C1CCN(c2ccc(Nc3ncc(F)c(-c4cc(F)c5nc6n(c5c4)C(C)(C)CC6)n3)nc2)CC1` [Example 71, N-(5-(4-(Dimethylamino)piperidine-1-yl)pyridin-2-yl)-5-fluoro-4-(5-fluoro-1,1-dimethyl-2,3-dihydro-1H-benzo[d]pyrrolo[1,2-a]imidazol-7-yl)pyrimidin-2-amine], the pIC50 was 7.34 in test [1] (setting [2]), 9.00 against CDK4/D3 and 7.85 at CDK6/D3.

In the case of `Fc1cnc(Nc2ccc(N3CCNCC3)cn2)nc1-c1cc(F)c2nc3n(c2c1)CCCC3` [Example 13, 5-Fluoro-4-(6-fluoro-1,2,3,4-tetrahydrobenzo[4,5]imidazo[1,2-a]pyridin-8-yl)-N-(5-(piperazin-1-yl)pyridin-2-yl)pyrimidin-2-amine], the results for the pIC50 (in test [1] (setting [3]); on CDK4/D3; against CDK6/D3) were 5.93, 7.74 and 7.20, respectively.

Source of the values: US10696678B2, “Kinase inhibitor, and preparing method and pharmaceutical use thereof” (GAN & LEE PHARMACEUTICALS, priority 2015, dated 2020).
